Results as given in ChEMBL document CHEMBL2010678, “Tigliane diterpene esters with IFN γ-inducing activity from the leaves of Aleurites fordii” (Bioorg Med Chem Lett, 2012).
Active and inactive are the calls of the source. No cut-off for these calls is given here.

Tests used:
Format in all cases: functional, cell-based
NK92 [1] = test: Immunomodulatory activity in human NK92 cells assessed as induction of IFNgamma at 4 nM after 12 hrs by ELISA
NK92 [2] = test: Immunomodulatory activity in human NK92 cells assessed as induction of IFNgamma after 12 hrs by ELISA
NK92 [3] = test: Immunomodulatory activity in human NK92 cells assessed as induction of IFNgamma at 40 nM after 12 hrs by ELISA

Row | Structure (SMILES) | Activity (NK92 [1]) | Activity (NK92 [2]) | also measured
1 | CCCCCCCCCCCCCCCC(=O)O[C@@H]1[C@@H](C)[C@@]2(O)[C@@H](C=C(CO)C[C@]3(O)C(=O)C(C)=C[C@@H]23)[C@@H]2C(C)(C)[C@]12OC(C)=O | Active | – | –
2 | CCCCCCCCCCCCCCCC(=O)O[C@@H]1[C@@H](C)[C@@]2(O)[C@@H](C=C(CO)C[C@]3(O)C(=O)C(C)=C[C@@H]23)[C@H]2[C@]1(OC(C)=O)[C@@]2(C)CO | Active | – | –
3 | CCCCCCCCCCCCCC(=O)O[C@@H]1[C@@H](C)[C@@]2(O)[C@@H](C=C(CO)C[C@]3(O)C(=O)C(C)=C[C@@H]23)[C@@H]2C(C)(C)[C@]12OC(C)=O | – | Active | –
4 | CCCCCCCCCCCCCCCC(=O)O[C@@H]1[C@@H](C)[C@@]2(O)[C@@H](C(=O)C(CO)=C[C@]3(O)C(=O)C(C)=C[C@@H]23)[C@@H]2C(C)(C)[C@]12OC(C)=O | – | inactive | –
5 | CCCCCCCCCCCCCCCC(=O)O[C@@H]1[C@@H](C)[C@@]2(O)[C@@H](C(=O)C(CO)=C[C@]3(O)C(=O)C(C)=C[C@@H]23)[C@H]2[C@]1(OC(C)=O)[C@@]2(C)CO | – | – | Activity (NK92 [3]): Active
6 | CCCCCCCCCCCCCCCC(=O)O[C@@H]1[C@@H](C)[C@]2(O)[C@@H]3C=C(C)C(=O)[C@@H]3CC(CO)=C[C@H]2[C@H]2[C@]1(OC(C)=O)[C@@]2(C)CO | – | inactive | –
